Assay results published in patent US20230089014A1, “COMPOUND USED AS KINASE INHIBITOR AND USE THEREOF” (TYK MEDICINES (ZHENGZHOU), INC., priority 2020, published 2023).

Experiments:
Type in all cases: biochemical
EGFR D770-N771insNPG = EGFR D770-N771insNPG (Homo sapiens, UniProt P00533, INS770NPG); test: Kinase activity assay (33P-ATP filter-binding) on EGFR exon 20 insertion mutant kinase D770-N771insNPG; conditions: ATP at Km
Protocol: (§1) Screening of biological activity of compounds will be performed in duplicate at 10 concentrations.
(§2) Each sample was prepared as a solution with a concentration of 10 mM.
(§3) 1) Basic buffer solution and quench buffer solution for experimental kinases were prepared.
(§4) 2) Compounds for experimental kinases were prepared.
(§5) Compounds for test were dissolved to specific concentrations in 100% dimethyl sulfoxide. (Serial) dilutions were performed with Integra Viaflo Assist assisted DMSO.
(§6) The kinase was added to freshly prepared basic reaction buffer, and any desired cofactors were added to the above substrate solution.
(§7) The EGFR exon 20 insertion mutant kinase was added to the substrate solution and mixed gently; the compound in 100% dimethyl sulfoxide was fed into the kinase reaction mixture by using Acoustic technology (Echo550; nanoliter range) and incubated for 20 minutes at room temperature.
(§8) 33P-ATP (Specific activity 10 Ci/l) was added to the reaction mixture to start the reaction, incubated at room temperature for 2 hours, and the radioactivity was detected by the filter-binding method.
(§9) Kinase activity data are expressed as a percentage of remaining kinase activity in the test sample compared to the medium (dimethyl sulfoxide) reaction. IC50 values and curve fitting were obtained by using Prism ([sequence] software).

EGFR A763_Y764insFHEA = EGFR A763_Y764insFHEA (Homo sapiens, UniProt P00533, INS763FHEA); test: Kinase activity assay (33P-ATP filter-binding) on EGFR exon 20 insertion mutant kinase A763_Y764insFHEA; conditions: for IC50: ATP at Km
Protocol: as §1, §2, §3, §4, §5, §6, §7, §8, §9

Her2 A775-G776insYVMA = Her2 A775-G776insYVMA (Homo sapiens, UniProt P04626, INS775YVMA); test: Kinase activity assay (33P-ATP filter-binding) on Her2 exon 20 insertion mutant kinase A775-G776insYVMA; conditions: for IC50: ATP at Km
Her2 A775-G776insYVMA, sequence (P04626 with tags, fused parts or gaps INS775YVMA limits assumed): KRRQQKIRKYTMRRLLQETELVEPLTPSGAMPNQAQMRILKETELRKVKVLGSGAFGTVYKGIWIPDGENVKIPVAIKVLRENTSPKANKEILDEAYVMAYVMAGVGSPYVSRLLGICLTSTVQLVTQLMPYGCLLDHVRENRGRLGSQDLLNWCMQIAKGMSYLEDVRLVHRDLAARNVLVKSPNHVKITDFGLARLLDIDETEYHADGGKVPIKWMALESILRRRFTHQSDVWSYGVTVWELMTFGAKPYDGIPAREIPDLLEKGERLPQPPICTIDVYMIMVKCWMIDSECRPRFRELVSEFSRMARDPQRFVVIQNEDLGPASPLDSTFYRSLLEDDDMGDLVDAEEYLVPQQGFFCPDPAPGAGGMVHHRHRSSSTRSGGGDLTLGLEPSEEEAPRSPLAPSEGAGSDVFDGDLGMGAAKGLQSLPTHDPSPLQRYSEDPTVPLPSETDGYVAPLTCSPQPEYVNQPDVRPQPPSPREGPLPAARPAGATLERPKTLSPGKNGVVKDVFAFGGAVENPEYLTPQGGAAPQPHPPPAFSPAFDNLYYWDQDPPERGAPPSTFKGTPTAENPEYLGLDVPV
Protocol: as §1, §2, §3, §4, §5, §6, §7, §8, §9

| Compound | IC50 (EGFR D770-N771insNPG; class symbols) [nM] | IC50 (EGFR A763_Y764insFHEA; class symbols) [nM] | IC50 (Her2 A775-G776insYVMA; class symbols) [nM] | IC50 (Her2 A775-G776insYVMA) [nM] | IC50 (EGFR D770-N771insNPG) [nM] | IC50 (EGFR A763_Y764insFHEA) [nM] | activity relative to that of poziotinib (EGFR A763_Y764insFHEA; EGFR exon 20 insertion mutant kinase, mutant not specified) | inhibitory activity on Her2 insertion mutant kinase relative to that of poziotinib (Her2 A775-G776insYVMA) |
| --- | --- | --- | --- | --- | --- | --- | --- | --- |
| C=CC(=O)N1C2CCC1CC(C(=O)c1cc3c(Nc4ccc(Cl)c(Cl)c4F)ncnc3cc1OC)C2 (stereo not drawn) [Example 11] | 4 to 40 | 4 to 40 | 4 to 40 | – | – | – | – | – |
| C=CC(=O)N1C2CC(Sc3cc4c(Nc5ccc(Cl)c(Cl)c5F)ncnc4cc3OC)CC1C2 (stereo not drawn) [Example 8] | 4 to 40 | 4 to 40 | – | – | – | – | – | – |
| C=CC(=O)N1C[C@H]2C[C@H](Oc3cc4c(Nc5ccc(Cl)c(Cl)c5F)ncnc4cc3OCCOC)C[C@H]2C1 [Example 16] | < 4 | < 4 | < 4 | – | – | – | – | – |
| C=CC(=O)N1CCC(Oc2cc3c(Nc4ccc(Cl)c(Cl)c4F)ncnc3cc2OC)CC1 [Poziotinib, reference compound] | – | – | 4 to 40 | 4.79 | – | – | – | – |
| C=CC(=O)N1CC2C(C1)C2Oc1cc2c(Nc3ccc(Cl)c(Cl)c3F)ncnc2cc1OC (stereo not drawn) [Example 10] | < 4 | < 4 | – | – | – | – | – | – |
| C=CC(=O)N1CC(C(=O)c2cc3c(Nc4ccc(Cl)c(Cl)c4F)ncnc3cc2OC)C1 [Example 4] | < 4 | 4 to 40 | – | – | 3.04 | 11.8 | – | – |
| C=CC(=O)N1CC2CN(c3cc4c(Nc5ccc(Cl)c(Cl)c5F)ncnc4cc3OC)CC2C1 (stereo not drawn) [Example 1] | < 4 | 4 to 40 | – | – | 1.61 | 6.68 | – | – |
| C=CC(=O)N1CCC(C(=O)c2cc3c(Nc4ccc(Cl)c(Cl)c4F)ncnc3cc2OC)CC1 [Example 6] | 4 to 40 | 4 to 40 | – | – | 4.51 | 16.2 | – | – |
| COc1cc2ncnc(Nc3ccc(Cl)c(Cl)c3F)c2cc1N1CCCC1 [Example 2] | < 4 | < 4 | – | – | 1.65 | 3.03 | – | – |
| C=CC(=O)N1CC(C(F)(F)c2cc3c(Nc4ccc(Cl)c(Cl)c4F)ncnc3cc2OC)C1 [Example 3] | < 4 | < 4 | < 4 | 2.61 | 0.513 | 1.32 | 2-3 times | – |
| C=CC(=O)N1CC2CC1CC2C(=O)c1cc2c(Nc3ccc(Cl)c(Cl)c3F)ncnc2cc1OC (stereo not drawn) [Example 9] | 4 to 40 | 4 to 40 | 4 to 40 | – | – | – | – | – |
| C=CC(=O)N1CC2(CC(Oc3cc4c(Nc5ccc(Cl)c(Cl)c5F)ncnc4cc3OC)C2)C1 [Example 13] | < 4 | 4 to 40 | < 4 | – | – | – | – | – |
| C=CC(=O)N1CCC(C(F)(F)c2cc3c(Nc4ccc(Cl)c(Cl)c4F)ncnc3cc2OC)CC1 [Example 5] | < 4 | < 4 | < 4 | 1.02 | 1.54 | 2.19 | – | about 4 times |
| C=CC(=O)N1C[C@H]2C[C@H](Oc3cc4c(Nc5ccc(Cl)c(Cl)c5F)ncnc4cc3OCCCN3CCOCC3)C[C@H]2C1 [Example 17] | < 4 | 4 to 40 | < 4 | – | – | – | – | – |
| C=CC(=O)N1CC2CC(Oc3cc4c(Nc5ccc(Cl)c(Cl)c5F)ncnc4cc3OC)CC2C1 (stereo not drawn) [Example 7] | < 4 | 4 to 40 | < 4 | 1.84 | 0.833 | 4.04 | – | – |
